System: C. elegans
Experiment: Retraction reflex of nematodes to a local thermal stimulus (laser, head region)
Assay type: in vivo, Caenorhabditis elegans
Conditions: for effect on the reflex behaviour of the nematode: nematodes exposed to the substance, local thermal stimulus
Experimental: The inventors' experiments have thus shown that the use of C. elegans as an animal model for studying materials in terms of their suitability as medicaments in humans or other mammals allows reliable predictions to be made, especially where the sensation or perception of pain is involved, both in terms of algesic or hyperalgesic effects and in terms of analgesic effects. […] A normal reflex to a thermal stimulus of e.g. 32-40° C. in the head region of the nematode can be described as follows:
I) Rapid reflexive retraction by at least one whole body length and subsequent orientation of the head in another direction.
II) Rapid reflexive retraction, but without backward motion.
The well-fed test animals (C. elegans) (about 100; length about 1.3 mm; diameter 80 μm) were irradiated in the experiments with an infrared laser (685±0.5 nm). The laser beam was always focused on a spot of diameter 30 μm in the head region of the animal, a local warming to 33.5±1° C. being observed on an agar surface. To examine the animals' behaviour in greater detail, they were exposed to a nociceptive stimulus, after which they were incubated in capsaicin at concentrations varying from 1 to 100 μM. A strong reaction was still being observed 1 h after incubation.

| Structure (SMILES) | reaction (intensified reflex as in I)) in mutants (C. elegans mutants whose normal behaviour is that only 70% of the animals react as in I)) | animals exhibiting a reflex as in I) (rapid reflexive retraction by at least one whole body length) (incubated in capsaicin 1 to 100 μM, 1 h after incubation, laser warming to 33.5±1° C. in head region, control group 80%) | effect on the reflex behaviour of the nematode |
| --- | --- | --- | --- |
| COc1cc(CNC(=O)CCCC/C=C/C(C)C)ccc1O [capsaicin] | observed even more clearly | over 90% | can be influenced |
| Oc1cc2c(cc1O)CN(C(=S)NCCc1ccc(Cl)cc1)CCC2 [capzazepine] |  |  | can be influenced |
